Data as given in patent US20120045501A1, “CONNEXIN ENHANCES CHEMOTHERAPY-INCLUDED APOPTOSIS IN HUMAN CANCER CELLS INHIBITING TUMOR CELL PROLIFERATION” (Northwest Hospital, priority 2001, published 2012).
Values joined by “and” are separate entries in the source; they are usually repeats but may differ in a detail not shown here. Equal values may be shown once.

Assays:
[1] = system: U251N23 cells; test: Apoptosis, Hoechst dye stain; format: cell-based, human; conditions: U251N23, 1 μM VP16, D4
Description: The assay was performed as we previously described (Huang et al., Cell Death Differ. 5:96-106 (1998)). Briefly, cells were fixed in Carnoy's solution (methanol:glacial […]; 3:1) and stained with 5 μg/ml of bisbenzimide trihydrochloride (Hoechst 33258) for 20 min. The morphology of nuclei was then observed with a Zeiss (Thornwood, N.Y.) photomicroscope II. At least 500 nuclei in each cell line were counted. Experiments were repeated four times.
(§1) It was next determined whether the enhanced sensitivity to chemotherapeutic agents induced by over-expression of cx43 was associated with the increase of drug-induced apoptosis. Cells collected at various time points post-treatment with 1 μM VP16 were used for apoptosis assays. First, nuclear condensation, chromatin fragmentation and formation of apoptotic bodies were detected by Hoechst 33258 dye staining upon treatment with VP16. […] The results were further confirmed by both 1) TUNEL assay, which detects double- as well as single-stranded DNA breaks during apoptosis by labeling the free 3′-OH termini in an enzymatic reaction (terminal deoxynucleotidyl transferase), and annexin V assay, which detects the exposed phosphotidylserine during apoptosis.

[2] = system: U251cx43-216 cells; test: MTT cell viability assay
[3] = system: U251N23 cells; test: Apoptosis, annexin V assay; format: cell-based, human
Description: (§2) Cells, treated or not VP16, were analyzed with the TACS Annexin V-FITC kit (Trevigen, Gaithersburg, Md.) according to manufacturer's instructions. Apoptosis was detected by the appearance of patches of fluorescence on the cell surface.
as §1

[4] = system: U251cx43-216 cells; test: Apoptosis, annexin V assay; format: cell-based, human
Description: as §2, §1

[5] = system: U251N2 cells; test: MTT cell viability assay; format: cell-based; conditions: Homo sapiens, 144 h, day 6 after treatment, U251N2 (control-transfected)
Description: (§3) In vitro viability was determined by the 3-(4,5-dimethylthiazol-2yl)-2,5-diphenyltetrazolium bromide (MTT) colorimetric assay as described in (Huang et al., Cancer Res. 55:5054-5062 (1995)). Cells (1×10^3) were plated in triplicate in 96 well microplates overnight and treated with 5 different concentrations of VP16, Tax and DOX, respectively. […] Absorbance values at 570 nm were plotted as a measure of the relative number of cells. […] Both methods gave the identical results.
(§4) Values at OD 570 reflect the relative number of viable cells.

[6] = system: U251cx43-217 cells; test: MTT cell viability assay; format: cell-based; conditions: Homo sapiens, 144 h, day 6 after treatment, U251cx43-217 (cx43-transfected)
Description: as §3, §4

[7] = system: U251N23 cells; test: MTT cell viability assay; format: cell-based; conditions: Homo sapiens, 144 h, day 6 after treatment, U251N23 (control-transfected)
Description: as §3, §4

[8] = system: T98GN28 cells; test: MTT cell viability assay; format: cell-based; conditions: Homo sapiens, 144 h, day 6 after treatment, T98GN28 (control-transfected)
Description: as §3, §4

[9] = system: T98Gcx43-220 cells; test: MTT cell viability assay; format: cell-based; conditions: Homo sapiens, 144 h, day 6 after treatment, T98Gcx43-220 (cx43-transfected)
Description: as §3, §4

[10] = system: U251N23 cells; test: Apoptosis, TUNEL assay; format: cell-based, human; conditions: U251N23, 1 μM VP16, D2
Description: (§5) Cells (1 to 3×10^5) were seeded onto glass slides in 8-well plates overnight, and then treated with VP16 for 48 hours. Apoptotic cells were then analyzed with a TUNEL-based in situ cell death detection kit (Boehringer-Mannheim, Mannheim, Germany). Fluorescent cells were observed under a fluorescence microscope and viewed as positive cells. The experiment was repeated twice.
as §1

[11] = system: U251cx43-216 cells; test: Apoptosis, TUNEL assay; format: cell-based, human; conditions: U251cx43-216, 1 μM VP16, D2
Description: as §5, §1

[12] = system: U251cx43-217 cells; test: Cell-cycle distribution by FACScan; format: cell-based, human; conditions: U251cx43-217, VP16 1 × 10^−6 M
Description: (§6) Cell-cycle distribution was determined by flow cytometry as described previously (Huang et al., Int. J. Cancer 77:880-886 (1998)). Briefly, cells were seeded in 100 mm plates (5×10^5 per plate), incubated for 24 hours, and then treated with VP16 or vehicle. At days 1 and 2 of treatment, cells were collected, fixed in 70% ethanol and stained with propidium iodine. The DNA content of cells was then analyzed in a fluorescence cell sorter (FACSCalibur, Becton Dickinson, Mountain View, Calif.).
(§7) The possibility was assessed by treatment of the cells with VP16 for 24 and 48 hours, and cell-cycle distribution was then determined by FACScan. […] Although there was a slight decrease of S phase in cx43-transfected cells compared with control transfected cells at 24 hours after VP16 treatment, it was not statistically significant.

[13] = system: U251N23 cells; test: Cell-cycle distribution by FACScan; format: cell-based, human; conditions: U251N23, VP16 1 × 10^−6 M
Description: as §6, §7

[14] = system: U251cx43-216 cells; test: Cell-cycle distribution by FACScan; format: cell-based, human; conditions: U251cx43-216, VP16 1 × 10^−6 M
Description: as §6, §7

[15] = system: U251N23 cells; test: Clonogenicity (cell survival) assay; format: cell-based, human
Description: (§8) The surviving cell fraction was determined by clonogenicity assay as previously described (Huang et al., J. Cell Biol. 133:211-220 (1996)). Cells were seeded at a density of 500 cells per 60 mm plate and incubated overnight and then treated with drugs; culture was then continued for 3 weeks. Clones were fixed in 4% formaldehyde-PBS and stained with Giemsa solution. Colonies containing more than 50 cells were counted and the fraction of surviving cells was calculated. The results represented the average of three separate experiments.
as §4

[16] = system: U251cx43-216 cells; test: Clonogenicity (cell survival) assay; format: cell-based, human
Description: as §8, §4

## COc1cc([C@@H]2c3cc4c(cc3[C@@H](O[C@@H]3O[C@@H]5CO[C@@H](C)O[C@H]5[C@H](O)[C@H]3O)[C@H]3COC(=O)[C@H]23)OCO4)cc(OC)c1O [VP16, Etoposide]
[1]
  Percentage of apoptotic cells, Hoechst stain: 8.8% and 8.8 +/− 2.4%
[2]; Homo sapiens, 144 h
  IC50: 390 nM
[2]; MTT assay, higher in cx43-transfected cells
  level of toxicity (measured as IC50) in U251cx43-216 relative to U251N23: about 2 fold
[3]; U251N23, 1 μM VP16, D2
  Percentage of apoptotic cells, annexin stain: 5.5 +/− 0.7%
[3]; U251N23, 1 μM VP16, D4
  Percentage of apoptotic cells, annexin stain: 11.5 +/− 2.1%
[4]; U251cx43-216, 1 μM VP16, D2
  Percentage of apoptotic cells, annexin stain: 24.5 +/− 0.7%
[4]; U251cx43-216, 1 μM VP16, D4
  Percentage of apoptotic cells, annexin stain: 42.0 +/− 5.6%
[5]
  IC50: 800 nM
[6]
  IC50: 330 nM
[7]
  IC50: 860 nM
[8]
  IC50: 1340 nM
[9]
  IC50: 760 nM
[10]
  Percentage of apoptotic cells, TUNNEL assay: 1.6 +/− 2.3%
[11]
  Percentage of apoptotic cells, TUNNEL assay: 13.3 +/− 4.5%
[12]; day 1
  Cell cycle distribution, G1 phase: 12.05%
  Cell cycle distribution, G2 phase: 77.84%
  Cell cycle distribution, S phase: 10.11%
[12]; day 2
  Cell cycle distribution, G1 phase: 11.39%
  Cell cycle distribution, G2 phase: 88.61%
  Cell cycle distribution, S phase: 0%
[13]; day 1
  Cell cycle distribution, G1 phase: 7.37%
  Cell cycle distribution, G2 phase: 81.49%
  Cell cycle distribution, S phase: 11.14%
[13]; day 2
  Cell cycle distribution, G1 phase: 5.78%
  Cell cycle distribution, G2 phase: 94.22%
  Cell cycle distribution, S phase: 0%
[14]; day 1
  Cell cycle distribution, G1 phase: 10.95%
  Cell cycle distribution, G2 phase: 80.57%
  Cell cycle distribution, S phase: 8.48%
[14]; day 2
  Cell cycle distribution, G1 phase: 8.44%
  Cell cycle distribution, G2 phase: 90.81%
  Cell cycle distribution, S phase: 0.75%
[15]; U251N23, 1 × 10^−7, 3 weeks
  Colony formation (colonies counted): 36 +/− 1
[15]; U251N23, 4 × 10^−6, 3 weeks
  Colony formation (colonies counted): 9 +/− 1
[15]; U251N23, 4 × 10^−7, 3 weeks
  Colony formation (colonies counted): 129 +/− 16
[16]; U251cx43-216, 1 × 10^−7, 3 weeks
  Colony formation (colonies counted): 3 +/− 1
[16]; U251cx43-216, 4 × 10^−6, 3 weeks
  Colony formation (colonies counted): 2 +/− 1
[16]; U251cx43-216, 4 × 10^−7, 3 weeks
  Colony formation (colonies counted): 44 +/− 5
